Measured values as given in patent US20190031599A1, “INDANE DERIVATIVES AS MGLUR7 MODULATORS” (Takeda Pharmaceutical Company Limited, priority 2016, published 2019).

Each molecule was assayed against T1, human mGluR7 (Homo sapiens, UniProt Q14831) (assay: mGluR7 assay: CRE-directed luciferase reporter gene assay, reduction of forskolin stimulated cAMP production). Details: stable CHO cell line expressing the CRE-luc reporter and human mGluR7 genes; decrease of forskolin stimulated luminescence; 10-point concentration-response, duplicate wells.
T1 construct: expressed in transfected cells
T1 sequence (Q14831 35-915): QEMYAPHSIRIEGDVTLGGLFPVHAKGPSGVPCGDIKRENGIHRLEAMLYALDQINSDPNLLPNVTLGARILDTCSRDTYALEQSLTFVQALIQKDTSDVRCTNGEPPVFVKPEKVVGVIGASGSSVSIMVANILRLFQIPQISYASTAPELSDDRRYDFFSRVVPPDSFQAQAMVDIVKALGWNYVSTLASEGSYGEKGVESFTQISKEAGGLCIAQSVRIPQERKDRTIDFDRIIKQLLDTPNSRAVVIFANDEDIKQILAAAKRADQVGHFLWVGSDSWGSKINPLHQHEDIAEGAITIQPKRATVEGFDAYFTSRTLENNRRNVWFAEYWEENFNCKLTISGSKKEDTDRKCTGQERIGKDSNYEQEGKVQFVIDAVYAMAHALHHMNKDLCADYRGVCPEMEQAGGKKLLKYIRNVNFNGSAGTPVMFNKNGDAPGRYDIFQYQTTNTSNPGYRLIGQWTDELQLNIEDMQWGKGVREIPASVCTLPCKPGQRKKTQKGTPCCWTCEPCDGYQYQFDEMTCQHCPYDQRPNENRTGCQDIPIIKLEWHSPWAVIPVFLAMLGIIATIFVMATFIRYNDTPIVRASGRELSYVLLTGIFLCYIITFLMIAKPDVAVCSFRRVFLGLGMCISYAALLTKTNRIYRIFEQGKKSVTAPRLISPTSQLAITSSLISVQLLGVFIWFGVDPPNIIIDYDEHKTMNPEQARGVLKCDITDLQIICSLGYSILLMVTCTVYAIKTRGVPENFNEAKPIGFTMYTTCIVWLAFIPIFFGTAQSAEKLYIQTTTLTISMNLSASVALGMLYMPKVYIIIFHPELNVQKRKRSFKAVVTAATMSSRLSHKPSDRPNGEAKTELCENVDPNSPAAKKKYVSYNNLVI
Assay type: cell-based
Experimental: The ability of the test compounds to activate mGluR7 was determined by their ability to reduce forskolin stimulated cAMP production. Compounds were assessed in a CRE-directed luciferase reporter gene assay, using a stable CHO cell line expressing the CRE-luc reporter and human mGluR7 genes. In this cell line, production of cAMP stimulated the transcription of the luciferase gene and luciferase activity was then measured in a luminescent enzyme assay (Steady Glo assay; Promega E2550). Activation of mGluR7 decreased the forskolin stimulated luminescence signal.
The day prior to the assay, compounds were serially diluted in DMSO (100× final assay concentration (FAC)), in 384-well plates which were then stored in the dark at room temperature (RT) until use. Cells were seeded at 12.5 k/well in white, clear bottom 384-well plates (Corning 3707) and left for one hour at RT followed by an overnight incubation (37° C.). The following day, the DMSO compound plate was diluted 1:20 (5× FAC) in Opti-MEM I (Life Technologies 11058021). The growth media was removed from the cell plate and replaced with 15 μl Opti-MEM I, followed by a 5 μl addition from the 5× compound plate and a fifteen minute incubation (37° C.). Forskolin (Sigma F3917) was then added to the wells (5 μl of 2.5 μM) and the plate was incubated for five hours (37° C.). During this incubation, the Steady Glo Substrate reagent was warmed to 37° C. Aliquots (11 ml; stored at −20° C.) of this reagent were prepared by dissolving the contents of 1 vial of lyophilised substrate in 100 ml Steady-Glo buffer. A 25 μl addition of the substrate was made to all wells and the plate was incubated for thirty minutes at RT, on a plate shaker (300 rpm; in the dark). Luminescence was then measured using the EnVision Multilabel Reader (Perkin Elmer).
Compound activity was examined using a 10-point, half log concentration-response range and each concentration was tested in duplicate wells. Luminescence values were normalised to ‘maximum’ (forskolin alone) and ‘minimum’ (forskolin in the presence of tool mGluR7 agonist) controls.

EC50 [nM]	SMILES
3	CCO[C@@H]1c2ccccc2C[C@H]1NC(=O)[C@@H](NCc1csc(C)n1)c1ccc(F)cc1 (mixture of isomers) [Example 60, (2S)—N-(trans)-(1-ethoxy-2,3-dihydro-1H-inden-2-yl)-2-(4-fluorophenyl)-2-{[(2-methyl-1,3-thiazol-4-yl)methyl]amino}acetamide]
83	CC(C)(C)OC(=O)N[C@H]1c2ccccc2C[C@@H]1NC(=O)C(c1ccc(F)cc1F)n1cccn1 (mixture of isomers) [Example 81, tert-butyl N-[(1S,2S)-2-[2-(2,4-difluorophenyl)-2-(1H-pyrazol-1-yl)acetamido]-2,3-dihydro-1H-inden-1-yl]carbamate]
772	Cc1nccn1C(C(=O)N[C@H]1Cc2ccccc2[C@@H]1NC(=O)OC(C)(C)C)c1ccc(F)cc1F (mixture of isomers) [Example 82, tert-butyl N-[(1S,2S)-2-[2-(2,4-difluorophenyl)-2-(2-methyl-1H-imidazol-1-yl)acetamido]-2,3-dihydro-1H-inden-1-yl]carbamate]
23	CC(C)(C)OC(=O)N[C@H]1c2ccccc2C[C@@H]1NC(=O)C(c1ccc(F)cc1F)N1CC(F)C1 (mixture of isomers) [Example 93, tert-butyl N-[(1S,2S)-2-[2-(2,4-difluorophenyl)-2-(3-fluoroazetidin-1-yl)acetamido]-2,3-dihydro-1H-inden-1-yl]carbamate]
107	C[C@H](C(=O)NC1Cc2ccccc2C1O)c1ccccc1 (mixture of isomers) [Example 2, (2S)—N-((trans)-1-hydroxy-2,3-dihydro-1H-inden-2-yl)-2-phenylpropanamide]
29	COC1c2ccccc2CC1NC(=O)[C@@H](C)c1ccccc1 (mixture of isomers) [Example 7, (2S)—N-((trans)-1-methoxy-2,3-dihydro-1H-inden-2-yl)-2-phenylpropanamide]
24	COC1c2ccccc2CC1NC(=O)[C@@H](C)c1ccc(F)cc1F (mixture of isomers) [Example 25, (2S)-2-(2,4-difluorophenyl)-N-((trans)-1-methoxy-2,3-dihydro-1H-inden-2-yl)propanamide]
28	CCOC1c2ccccc2CC1NC(=O)[C@@H](C)c1ccc(F)cc1F (mixture of isomers) [Example 28, (2S)-2-(2,4-difluorophenyl)-N-((trans)-1-ethoxy-2,3-dihydro-1H-inden-2-yl)propanamide]
36	COC1c2ccccc2CC1NC(=O)[C@@H](C)c1ccc(F)cc1 (mixture of isomers) [Example 36, (2S)-2-(4-fluorophenyl)-N-((trans)-1-methoxy-2,3-dihydro-1H-inden-2-yl)propanamide]
9	CC[C@H](C(=O)NC1Cc2ccccc2C1OC)c1ccc(F)cc1 (mixture of isomers) [Example 44, (2S)-2-(4-fluorophenyl)-N-((trans)-1-methoxy-2,3-dihydro-1H-inden-2-yl)butanamide]
66	COC1c2ccccc2CC1NC(=O)[C@@H](N)c1ccc(F)cc1 (mixture of isomers) [Example 54, (2S)-2-amino-2-(4-fluorophenyl)-N-(trans)-(1-methoxy-2,3-dihydro-1H-inden-2-yl)acetamide]
4	CS(=O)(=O)[C@@H]1c2ccccc2C[C@H]1NC(=O)C(OCC1CC1)c1ccccc1 (relative stereo) [Example 135, 2-(cyclopropylmethoxy)-N-(trans)-(1-methanesulfonyl-2,3-dihydro-1H-inden-2-yl)-2-phenylacetamide]
349	C[C@H](C(=O)NC1Cc2ccccc2C1O)c1ccccc1 (single isomer, unassigned) [Example 3]
121	C[C@H](C(=O)NC1Cc2ccccc2C1O)c1ccccc1 (single isomer, unassigned) [Example 4]
654	C[C@H](C(=O)NC1Cc2ccccc2C1O)c1ccccc1 (single isomer, unassigned) [Example 5]
1560	C[C@H](C(=O)NC1Cc2ccccc2C1O)c1ccccc1 (single isomer, unassigned) [Example 6]
57	COC1c2ccccc2CC1NC(=O)[C@@H](C)c1ccccc1 (single isomer, unassigned) [Example 8]
37	COC1c2ccccc2CC1NC(=O)[C@@H](C)c1ccccc1 (single isomer, unassigned) [Example 9]
25	CCC(C(=O)N[C@H]1Cc2ccccc2[C@@H]1N)c1ccc(F)cc1F (single isomer, unassigned) [Example 15]
747	CCC(C(=O)N[C@H]1Cc2ccccc2[C@@H]1N)c1ccc(F)cc1F (single isomer, unassigned) [Example 16]
64	COC1c2ccccc2CC1NC(=O)[C@@H](C)c1ccc(F)cc1F (single isomer, unassigned) [Example 26]
21	COC1c2ccccc2CC1NC(=O)[C@@H](C)c1ccc(F)cc1F (single isomer, unassigned) [Example 27]

EC50 [nM]	SMILES
10	CCOC1c2ccccc2CC1NC(=O)C(C)c1ccc(F)cc1F (single isomer, unassigned) [Example 29]
22	CCOC1c2ccccc2CC1NC(=O)C(C)c1ccc(F)cc1F (single isomer, unassigned) [Example 30]
14	CCOC1c2ccccc2CC1NC(=O)[C@@H](C)c1ccc(F)cc1 (single isomer, unassigned) [Example 32]
39	CCOC1c2ccccc2CC1NC(=O)[C@@H](C)c1ccc(F)cc1 (single isomer, unassigned) [Example 33]
38	COC1c2ccccc2CC1NC(=O)[C@@H](C)c1ccc(F)cc1 (single isomer, unassigned) [Example 37]
16	COC1c2ccccc2CC1NC(=O)[C@@H](C)c1ccc(F)cc1 (single isomer, unassigned) [Example 38]
17	CC[C@H](C(=O)NC1Cc2ccccc2C1OC)c1ccc(F)cc1 (single isomer, unassigned) [Example 45]
11	CC[C@H](C(=O)NC1Cc2ccccc2C1OC)c1ccc(F)cc1 (single isomer, unassigned) [Example 46]
336	CC(C)(C)OC(=O)N[C@H]1c2ccccc2C[C@@H]1NC(=O)C(c1ccc(F)cc1F)n1ccccc1=O (single isomer, unassigned) [Example 48]
133	CC(C)(C)OC(=O)N[C@H]1c2ccccc2C[C@@H]1NC(=O)C(c1ccc(F)cc1F)n1ccccc1=O (single isomer, unassigned) [Example 49]
3920	N[C@H]1c2ccccc2C[C@@H]1NC(=O)C(c1ccc(F)cc1F)n1ccccc1=O (single isomer, unassigned) [Example 50]
565	N[C@H]1c2ccccc2C[C@@H]1NC(=O)C(c1ccc(F)cc1F)n1ccccc1=O (single isomer, unassigned) [Example 51]
1	COC1c2ccccc2CC1NC(=O)[C@@H](NCC1CC1)c1ccc(F)cc1 (single isomer, unassigned) [Example 55]
1	COC1c2ccccc2CC1NC(=O)[C@@H](NCC1CC1)c1ccc(F)cc1 (single isomer, unassigned) [Example 56]
704	C[C@H](C(=O)NC1Cc2ccccc2C1O)c1ccc(F)cc1 (single isomer, unassigned) [Example 62]
767	C[C@H](C(=O)NC1Cc2ccccc2C1O)c1ccc(F)cc1 (single isomer, unassigned) [Example 63]
47	CC(C(=O)N[C@H]1Cc2ccccc2[C@@H]1N)c1ccc(Cl)cc1 (single isomer, unassigned) [Example 69]
956	CC(C(=O)N[C@H]1Cc2ccccc2[C@@H]1N)c1ccc(Cl)cc1 (single isomer, unassigned) [Example 70]
45	C[C@H](C(=O)NC1Cc2ccccc2C1N1CCOCC1)c1ccc(F)cc1 (single isomer, unassigned) [Example 73]
288	CC(F)(C(=O)N[C@H]1Cc2ccccc2[C@@H]1N)c1ccc(F)cc1 (single isomer, unassigned) [Example 76]
2630	CC(F)(C(=O)N[C@H]1Cc2ccccc2[C@@H]1N)c1ccc(F)cc1 (single isomer, unassigned) [Example 77]
8	C[C@H](C(=O)NC1Cc2ccccc2C1NCC(F)F)c1ccc(F)cc1 (single isomer, unassigned) [Example 84]

SMILES	EC50 [nM]
C[C@H](C(=O)NC1Cc2ccccc2C1N1CCCC1)c1ccccc1 (mixture of isomers) [Example 78, (2S)-2-phenyl-N-(trans)-[1-(pyrrolidin-1-yl)-2,3-dihydro-1H-inden-2-yl]propanamide]	322
C[C@H](C(=O)NC1Cc2ccccc2C1N1CCCC1)c1ccc(F)cc1 (single isomer, unassigned) [Example 67]	16
C[C@H](C(=O)NC1Cc2ccccc2C1N1CCCC1)c1ccc(F)cc1 (single isomer, unassigned) [Example 68]	28
